Legend:
onion epidermis tissue [1] = test: Biolistic delivery of molecules lyophilized onto 0.6 μm gold microcarriers to onion epidermis tissue; type: cell-based; conditions: lyophilized onto 0.6 μm gold, observed about 30 minutes after bombardment
Description: 2 μL of 0.6 μm gold particle stock was mixed with 1 μg of GFP plasmid pLMNC95 or 2 μL of a 400 ng/μL, TRITC-BSA solution. The mixture was poured on a macrocarrier, frozen in liquid nitrogen and freeze-dry for 1 hour prior to onion epidermis tissue bombardment.
Onion epidermis tissue was obtained from the scale leaves of white onion bulbs. Rectangular (3×2.5 cm) pieces were peeled right before the bombardment and placed in solid agar media (0.5 mM of 2-(N-morpholino)ethanesulfonic acid (MES), 15 g L^−1 Bacto agar (BD), pH 5.7) with the peeled side upwards. For quantitative measurements, epidermis pieces of the same scale leaf were distributed among treatments. Tobacco leaves (Nicotiana tabacum var. Petite Havana) were obtained from 3-6 week old in vitro grown plants on MS media (MS medium (Murashige and Skoog, 1962), 2% sucrose, 2.5 g L^−1 gelrite, pH 5.7). Leaves were cut right before bombardment and put with the adaxial surface up on agar media. Hill maize immature embryos were obtained from immature ears provided by the Center for Plant Transformation—Iowa State University. […]
Bright field and fluorescence images were taken using a Zeiss Axio star plus microscope. […] For the green channel fluorescence images a GFP BP filter (Chroma Technology Corp.) was used (λex=470 nm, beam splitter=495 nm and λem=525 nm). […]

onion epidermis tissue [2] = test: Control: solution deposited or incubated on onion epidermis tissue without coated projectiles; type: cell-based; conditions: solution on the surface of onion epidermis tissue
Description: The dye bromophenol blue was used to test the ability of the system to deliver a chemical. As a control, a saturated solution of the dye (10 μL of a 100 μg μL^−1 mg) was deposited with a pipette on top of onion epidermis tissue. […] For the bromophenol blue delivery, the saturated solution was mixed with 0.6 μm gold microcarriers and an aliquot was deposited over a macrocarrier set. This macrocarrier set was frozen in liquid nitrogen for 5-10 minutes and then lyophilized for an hour using a lyophilizer. This macrocarrier set was subsequently used to bombard onion epidermis tissue. […] The amount of dye delivered to each cell was different, and as a consequence, different shades of purple could be observed in the bombarded tissue (FIG. 3C).
Protein delivery can be considered a difficult challenge because proteins could be subjected to denaturation during the delivery process. […] This protein will not fluoresce if denatured (Ward and Bokman, 1982). As a control, to test if the protein could be diffused into plant cells, 10 μL of a 100 ng/μL eGFP solution were incubated for 30 minutes on the surface of intact onion epidermis tissue or bombarded with bare 0.6 μm gold microparticles. […] Lyophilization of eGFP onto 0.6 μm gold microcarriers was done using 2.5 μL of 1 μg μL^−1 solution of the protein and 60 μg of microcarriers per shot.

tobacco leaf cells = test: Biolistic delivery of molecules lyophilized onto 0.6 μm gold to tobacco leaf tissue; type: cell-based, Nicotiana tabacum var. Petite Havana; conditions: 250 μg per shot lyophilized onto 0.6 μm gold; tobacco leaves
Description: (§1) Onion epidermis tissue was obtained from the scale leaves of white onion bulbs. Rectangular (3×2.5 cm) pieces were peeled right before the bombardment and placed in solid agar media (0.5 mM of 2-(N-morpholino)ethanesulfonic acid (MES), 15 g L^−1 Bacto agar (BD), pH 5.7) with the peeled side upwards. For quantitative measurements, epidermis pieces of the same scale leaf were distributed among treatments. Tobacco leaves (Nicotiana tabacum var. Petite Havana) were obtained from 3-6 week old in vitro grown plants on MS media (MS medium (Murashige and Skoog, 1962), 2% sucrose, 2.5 g L^−1 gelrite, pH 5.7). Leaves were cut right before bombardment and put with the adaxial surface up on agar media. Hill maize immature embryos were obtained from immature ears provided by the Center for Plant Transformation—Iowa State University. Immature embryos (1-2 mm long) were cultured as previously described (Frame et al., 2000).
(§2) The saturated solutions of chemical or biomolecules used were done as follows (data per shot): for bromophenol blue (Sigma) delivery 10 μL of a 100 μg 1 μL^−1 mg solution were used. For plasmid DNA delivery, 2 μL of a 500 ng μL^−1 solution of the plasmid pLMNC95 (Luke Mankin and Thompson, 2001) were used for GFP expression. For mCherry expression linear dsDNA, the plasmid ER-rk (Nelson et al., 2007) was digested with the restriction enzymes SacI-HindIII. […]

maize immature embryos = test: Biolistic delivery of molecules lyophilized onto 0.6 μm gold to maize immature embryos; type: cell-based; conditions: 250 μg per shot lyophilized onto 0.6 μm gold; maize Hi II immature embryo scutella
Description: as §1, §2

onion epidermis tissue [3] = test: Fluorescein diacetate staining, count of dead cells after bombardment; type: cell-based; conditions: 250 μg per shot
Description: Onion epidermis tissues were submerged in 10 mL of MS liquid media to which 100 μL of a 5 mg mL^−1 of fluorescein diacetate (Alfa Aesar) solution in acetone were added. The samples were incubated for 2-5 minutes and directly observed under the green channel filter of the fluorescence microscope. For quantitative measurements, 12 images (10.5×8 mm) were taken with the 5× microscope objective scattered every 0.5 cm (4 columns×3 rows). The total amount of dead cells found on each image was counted.
The high concentration of protein used per shot (250 μg per shot) and the lyophilization process could cause cell death by: (1) physical damage of the potential clumps produced after lyophilizing protein and microparticles and (2) excess of intracellular protein delivery reaching toxic levels. To assess cellular death, onion epidermis tissues were stained with fluorescein diacetate, which stains in fluorescent green the living cells, while the dead ones remain dark (FIG. 7A). […]
As another example of active enzyme delivery, trypsin and RNAse A were chosen. […] The number of dead cells was measured using fluorescein diacetate staining in samples not bombarded, bombarded only with 0.6 μm gold or with 200 μg of trypsin or 40 μg of RNAse per shot. […]

Row | Compound | intracellular delivery after bombardment (onion epidermis tissue [1]) | permeation or diffusion into cells without coated projectiles (onion epidermis tissue [2]) | protein delivery (red fluorescence) (tobacco leaf cells) | protein delivery (red fluorescence) (maize immature embryos) | number of dead cells compared with bombardment without the protein (onion epidermis tissue [3]; 1 day after bombardment, differences were not significant) | viability of cells showing protein delivery (onion epidermis tissue [3]; stained 1 day after bombardment)
1 | O=S1(=O)OC(c2cc(Br)c(O)c(Br)c2)(c2cc(Br)c(O)c(Br)c2)c2ccccc21 [bromophenol blue, reference compound] | several cells were showing bluish-purple coloration | did not permeate | – | – | – | –
2 | tetramethylrhodamine isothiocyanate labeled bovine serum albumin [TRITC-BSA] | successfully delivered | – | delivery could be observed | delivery could be observed | higher | most of the cells showing TRITC-BSA delivery were alive
